How the values were obtained:
[1] = biological target: PI3Kα (p110/p85) kinase (wild type, "WT") (Homo sapiens, UniProt P42336); experiment: PI3Kα (p110/p85) kinase ADP-Glo Assay; format: biochemical; conditions: 25 uM ATP
Method: PI3Kα (p110/p85) kinase ADP-Glo Assay. Certain compounds disclosed herein were tested for inhibition of PI3Kα (p110/p85) kinase (wild type, “WT”) in assays based on the ADP-Glo™ Kinase Assay methodology. The assays were carried out in 384-well white plates in a reaction mixture containing PI3Kα (p110/p85) kinase, 25 µM ATP, 5.35 µg/mL PI(4,5)P2:PS Lipid Kinase Substrate and […] compound in buffer containing 50 mM HEPES pH7.5, 50 mM NaCl, 3 mM MgCl2, 0.0025% BSA and 2 mM DTT. PI3Kα (p110/p85) kinase was incubated with Lipid Kinase Substrate and compound for 30 minutes at room temperature and the reaction was initiated by the addition of ATP. After reaction at room temperature for 120 minutes, ADP-Glo™ reagents were added to terminate the kinase reaction and deplete the remaining ATP according to the manufacture's instruction (Promega Corporation). After incubation at room temperature for 1 hour, Kinase Detection Reagent (prepared by reconstituting the lyophilized Kinase Detection Substrate with Kinase Detection Buffer of the kit) was added to convert the ADP to ATP and to allow for the newly synthesized ATP to be measured using a luciferase/luciferin reaction. After incubation at room temperature for 0.5 hour, chemiluminescence signals were recorded on a PHERAstar FSX plate reader (BMG Labtech). The chemiluminescence generated in this assay correlates to the amount of ADP generated in the kinase assay, indicating kinase activity. […] The IC50 for each compound was derived from fitting the data to the four-parameter logistic equation by Dotmatics.

[2] = biological target: PI3Kα (p110[H1047R]/p85) kinase (Homo sapiens, UniProt P42336, H1047R); experiment: PI3Kα (p110[H1047R]/p85) kinase ADP-Glo Assay; format: biochemical; conditions: 25 uM ATP; for selectivity: WT/H1047R: ADP-Glo Assay IC50 ratio
Method: PI3Kα (p110[H1047R]/p85) kinase ADP-Glo Assay. Certain compounds disclosed herein were tested for inhibition of PI3Kα (p110[H1047R]/p85) kinase in assays based on the ADP-Glo™ Kinase Assay methodology. The assays were carried out in 384-well white plates in a reaction mixture containing PI3Kα (p110[H1047R]/p85) kinase, 25 µM ATP, 5.35 µg/ml PI(4,5)P2:PS Lipid Kinase Substrate and […] compound in buffer containing 50 mM HEPES pH7.5, 50 mM NaCl, 3 mM MgCl2, 0.0025% BSA and 2 mM DTT. PI3Kα (p110[H1047R]/p85) kinase was incubated with Lipid Kinase Substrate and compound for 30 minutes at room temperature and the reaction was initiated by the addition of ATP.
After reaction at room temperature for 120 minutes, ADP-Glo™ reagents were added to terminate the kinase reaction and deplete the remaining ATP according to the manufacture's instruction (Promega Corporation). After incubation at room temperature for 1 hour, Kinase Detection Reagent (prepared by reconstituting the lyophilized Kinase Detection Substrate with Kinase Detection Buffer of the kit) was added to convert the ADP to ATP and to allow for the newly synthesized ATP to be measured using a luciferase/luciferin reaction. After incubation at room temperature for 0.5 hour, chemiluminescence signals were recorded on a PHERAstar FSX plate reader (BMG Labtech). The chemiluminescence generated in this assay correlates to the amount of ADP generated in the kinase assay, indicating kinase activity. […] The IC50 for each compound was derived from fitting the data to the four-parameter logistic equation by Dotmatics.

[3] = tested on: PI3Kα H1047R mutated cell line T-47D; experiment: Phospho-AKT (Ser473) Inhibition Assay (HTRF), T-47D; format: cell-based; conditions: for IC50: Homo sapiens, T47D, T-47D, 1 hour treatment, read-out: p-AKT Inhibition assay (S473) IC50 T-47D; for Selectivity: SK-BR-3/T-47D (p-AKT): p-AKT (S473) IC50 ratio
Method: (§1) Cell Culture Maintenance. The T-47D (ATCC, HTB-133) cell line was obtained from the American Type Culture Collection. Cells were maintained in RPMI1640 medium (Gibco, REF #22400105) supplemented with 10% Fetal Bovine Serum (Gibco, REF #10091148). Cultures were maintained in a humidified incubator at 37° C. under 5% CO2/95% air.
(§2) Phospho-AKT Inhibition Assay. HTRF Phospho-AKT (Ser473) detection kit (Cisbio, REF #64AKSPEH) was used in phosphor-AKT inhibition assay. For compound screening, PI3Kα H1047R mutated cell line T-47D and WT cell line SK-BR-3 cells were seeded at a density of 3×10^4 cells per well in 96 well plate (Costar, REF #3599) in 95 μL of assay medium (MEM medium (Gibco, REF #12561-056) with 1×NEAA (Gibco, REF #11140-050), 1 mM sodium pyruvate (Gibco, REF #11360-070), and 1 g/ml human insulin (Topscience, REF #T8221)), overnight. Compounds dissolved in 10 mM stock solutions in DMSO were serially diluted 1:3 in DMSO to generate an 11-point dilution series and plated using an INTEGRA ASSIST PLUS pipetting robot. A 20× intermediate compound dilution plate in RPMI1640 medium (200 M starting compound concentration in 2% DMSO) was then prepared. Five μL of intermediate serially diluted compounds were added to the cell plate to final concentrations ranging from […] to 0.1 nM in 0.1% DMSO. 0.1% DMSO alone was used to establish the maximum signal and GDC0077 at final concentration of 10 μM was used as a reference compound for minimum signal. After 1 hour treatment, removed medium and added 50 μL of supplemented lysis buffer (1×) immediately. Incubated for at least 30 minutes at room temperature under shaking. Transferred 16 μL of cell lysate from the 96-well cell-culture plate to a 384-white detection plate (PerkinElmer, Optiplate 384, 6007299). Added 4 μL of premixed antibody solutions prepared in the detection buffer. Incubated 4 hours at room temperature in dark. The plates were read on PHERAstar FSX Microplate reader (BMG LABTECH, Inc.) using standard HTRF settings.
(§3) Relative IC50 values were determined using luminescence units by calculating percent inhibition with respect to the in-plate “MIN” (GDC0077 reference control) and “MAX” (DMSO) controls. The data were analyzed using a 4-parameter nonlinear logistic equation (four-parameter logistic concentration-response curve): Y=bottom+[(top−bottom)/1+(X/IC50) slope] • where Y=% inhibition, X=concentration of inhibitor, bottom=minimum value of y attained by curve-fit, top=maximum value of y attained by curve-fit and slope=steepness of curve at the IC50.

WT cell line SK-BR-3 = experiment: Phospho-AKT (Ser473) Inhibition Assay (HTRF), SK-BR-3; format: cell-based; conditions: Homo sapiens; SK-BR-3, 1 hour treatment; read-out: p-AKT Inhibition assay (S473) IC50 SK-BR-3
Method: The SK-BR-3 (ATCC, HTB-30) cell line was obtained from the American Type Culture Collection. Cells were maintained in McCoy' 5A medium (Gibco, REF #16600108) supplemented with 10% Fetal Bovine Serum. Cultures were maintained in a humidified incubator at 37° C. under 5% CO2/95% air.
as §2, §3

[4] = tested on: PI3Kα H1047R mutated cell line T-47D cells; experiment: Cell Proliferation Assay (CellTiter-Glo), T-47D; format: cell-based; conditions: Homo sapiens, T47D, 72 h; T-47D, 3 days treatment
Method: as §1
Cell Proliferation Assay. PI3Kα H1047R mutated cell line T-47D cells and WT cell line SK-BR-3 were seeded at a density of 3×10^3 cells per well in 96 well plate (Xinyou Biotechnology, 062096) in 95 μL of culture medium, overnight. Compounds dissolved in 10 mM stock solutions in DMSO were serially diluted 1:3 in DMSO to generate a 9-point dilution series and plated using an INTEGRA ASSIST Plus pipetting robot. A 20× intermediate compound dilution plate in RPMI1640 medium (200 M starting compound concentration in 2% DMSO) was then prepared. Five μL of intermediate serially diluted compounds were added to the cell plate to final concentrations ranging from […] to 1 nM in 0.1% DMSO. 0.1% DMSO alone was used to establish the maximum signal and medium without cells was for minimum signal. After 3 days treatment, equilibrated the plate and its contents at room temperature for approximately 30 minutes. Added 30 μL CellTiter-Glo® Reagent (Promega, REF #G7571) to each well. Then mixed contents for 5 min on plate shaker to induce cell lysis. Incubated at room temperature for 10 minutes to stabilize luminescent signal. The plates were read on PHERAstar FSX Microplate reader using standard luminescence settings.
Relative IC50 values were determined using luminescence units by calculating percent inhibition with respect to the in-plate “MIN” (medium only) and “MAX” (0.1% DMSO) controls. The data were analyzed using a 4-parameter nonlinear logistic equation (four-parameter logistic concentration-response curve): Y=bottom+[(top−bottom)/1+(X/IC50) slope] • where Y=% inhibition, X=concentration of inhibitor, bottom=minimum value of y attained by curve-fit, top=maximum value of y attained by curve-fit and slope=steepness of curve at the IC50.

Sequence of PI3Kα (p110[H1047R]/p85) kinase (P42336 whole entry H1047R): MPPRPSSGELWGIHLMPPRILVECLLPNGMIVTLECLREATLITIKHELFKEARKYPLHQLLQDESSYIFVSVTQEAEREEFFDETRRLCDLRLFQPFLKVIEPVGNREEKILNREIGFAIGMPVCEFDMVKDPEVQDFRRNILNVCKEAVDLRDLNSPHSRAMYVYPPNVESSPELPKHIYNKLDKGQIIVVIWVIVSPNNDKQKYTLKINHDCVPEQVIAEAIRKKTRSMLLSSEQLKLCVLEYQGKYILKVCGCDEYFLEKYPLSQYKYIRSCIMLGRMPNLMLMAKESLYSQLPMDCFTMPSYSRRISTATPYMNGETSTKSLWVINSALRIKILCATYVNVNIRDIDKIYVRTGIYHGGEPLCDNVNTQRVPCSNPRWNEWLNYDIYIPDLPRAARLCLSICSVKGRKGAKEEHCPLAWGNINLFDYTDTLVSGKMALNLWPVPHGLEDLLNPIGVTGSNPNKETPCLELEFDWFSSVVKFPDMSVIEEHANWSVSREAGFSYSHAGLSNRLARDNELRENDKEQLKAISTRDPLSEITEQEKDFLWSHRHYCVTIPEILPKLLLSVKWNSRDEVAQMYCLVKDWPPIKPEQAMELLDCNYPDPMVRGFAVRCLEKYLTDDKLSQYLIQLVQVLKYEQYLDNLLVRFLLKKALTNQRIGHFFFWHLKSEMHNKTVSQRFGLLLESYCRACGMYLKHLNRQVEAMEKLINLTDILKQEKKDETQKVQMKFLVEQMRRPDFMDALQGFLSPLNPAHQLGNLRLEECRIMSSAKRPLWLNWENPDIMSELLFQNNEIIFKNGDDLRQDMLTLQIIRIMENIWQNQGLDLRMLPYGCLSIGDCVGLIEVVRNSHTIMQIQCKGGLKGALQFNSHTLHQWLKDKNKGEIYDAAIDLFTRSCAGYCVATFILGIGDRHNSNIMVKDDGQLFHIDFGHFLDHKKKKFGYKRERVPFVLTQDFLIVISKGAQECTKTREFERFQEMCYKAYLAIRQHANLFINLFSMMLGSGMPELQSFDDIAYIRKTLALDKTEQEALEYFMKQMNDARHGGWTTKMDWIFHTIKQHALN
Sequence of PI3Kα (p110[H1047R]/p85) kinase (P27986 whole entry partner): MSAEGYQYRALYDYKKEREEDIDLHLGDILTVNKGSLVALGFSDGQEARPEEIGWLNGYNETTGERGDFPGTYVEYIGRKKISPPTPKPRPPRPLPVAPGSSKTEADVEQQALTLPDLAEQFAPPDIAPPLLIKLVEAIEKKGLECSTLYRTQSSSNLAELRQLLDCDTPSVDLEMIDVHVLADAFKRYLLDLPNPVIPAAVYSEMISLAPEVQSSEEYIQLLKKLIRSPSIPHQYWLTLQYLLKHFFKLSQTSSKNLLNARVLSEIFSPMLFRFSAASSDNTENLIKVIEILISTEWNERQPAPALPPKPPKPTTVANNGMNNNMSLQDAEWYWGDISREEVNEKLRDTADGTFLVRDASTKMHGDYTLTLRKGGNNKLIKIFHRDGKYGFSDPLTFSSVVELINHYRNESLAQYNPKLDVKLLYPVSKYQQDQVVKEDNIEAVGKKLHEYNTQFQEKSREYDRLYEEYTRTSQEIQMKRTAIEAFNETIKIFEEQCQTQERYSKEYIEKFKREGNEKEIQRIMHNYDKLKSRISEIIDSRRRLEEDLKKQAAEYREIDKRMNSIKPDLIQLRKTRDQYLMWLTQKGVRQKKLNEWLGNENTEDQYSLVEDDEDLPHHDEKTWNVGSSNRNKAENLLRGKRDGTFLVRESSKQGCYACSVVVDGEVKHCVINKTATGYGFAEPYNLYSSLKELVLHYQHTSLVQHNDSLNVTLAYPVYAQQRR
Sequence of PI3Kα (p110/p85) kinase (wild type, "WT") (P42336 whole entry): as the sequence (P42336 whole entry H1047R) above, with R1047H counted along it
Sequence of PI3Kα (p110/p85) kinase (wild type, "WT") (P27986 whole entry partner): as the sequence (P27986 whole entry partner) above

Row | IC50 [1] [µM] | IC50 [2] [µM] | selectivity: WT/H1047R [2] | IC50 [3] [µM] | IC50 (WT cell line SK-BR-3) [µM] | IC50 [4] [µM] | Structure (SMILES) | Selectivity: SK-BR-3/T-47D (p-AKT) [3]
1 | 6.25 | 0.158 | 40 | 0.05 | > 10 | – | Cc1cc(C(C)Nc2ccccc2C(=O)O)c2cc(-c3ccccc3)[nH]c(=O)c2c1 (stereo not drawn) [Example 26, 2-((1-(7-methyl-1-oxo-3-phenyl-1,2-dihydroisoquinolin-5-yl)ethyl)amino)benzoic acid] | >198
2 | 60.2 | 0.762 | 79 | 0.245 | > 10 | – | CC#Cc1cc2c(C(C)Nc3ccccc3C(=O)O)cc(C)cc2c(=O)n1C (stereo not drawn) [Example 27, 2-((1-(2,7-dimethyl-1-oxo-3-(prop-1-yn-1-yl)-1,2-dihydroisoquinolin-5-yl)ethyl)amino)benzoic acid] | >21
3 | > 100 | 0.505 | >198 | 0.472 | 6.43 | – | Cc1cc(C(C)Nc2ccccc2C(=O)O)c2cc(C#CC3CCCCC3)n(C)c(=O)c2c1 (stereo not drawn) [Example 28, 2-((1-(3-(cyclohexylethynyl)-2,7-dimethyl-1-oxo-1,2-dihydroisoquinolin-5-yl)ethyl)amino)benzoic acid] | 17
4 | 71.6 | 0.971 | 73.8 | 0.298 | – | 3.53 | Cc1cc(C(C)Nc2ccccc2C(=O)O)c2cc(C(=O)Nc3ccccc3)n(C)c(=O)c2c1 (stereo not drawn) [Example 42, 2-((1-(2,7-dimethyl-1-oxo-3-(phenylcarbamoyl)-1,2-dihydroisoquinolin-5-yl)ethyl)amino)benzoic acid] | –
5 | > 100 | 9.29 | >10 | – | – | – | Cc1cc(C(C)Nc2cnccc2C(=O)O)c2cc(-c3ccc(F)cc3)n(C)c(=O)c2c1 (stereo not drawn) [Example 54, 3-((1-(3-(4-fluorophenyl)-2,7-dimethyl-1-oxo-1,2-dihydroisoquinolin-5-yl)ethyl)amino)isonicotinic acid] | –
6 | 24.1 | 16.4 | 1.5 | – | – | – | COc1ncc(-c2cc3c([C@H](C)Nc4ccccc4C(=O)O)cc(C)cc3c(=O)n2C)cc1F [Example 60, (S)-2-((1-(3-(5-fluoro-6-methoxypyridin-3-yl)-2,7-dimethyl-1-oxo-1,2-dihydroisoquinolin-5-yl)ethyl)amino)benzoic acid] | –
7 | > 100 | > 100 | – | – | – | – | Cc1cc([C@H](C)Nc2ccccc2C(=O)O)c2cc(-c3ccc(F)cc3)n(CC#N)c(=O)c2c1 [Example 65, (S)-2-((1-(2-(cyanomethyl)-3-(4-fluorophenyl)-7-methyl-1-oxo-1,2-dihydroisoquinolin-5-yl)ethyl)amino)benzoic acid] | –
8 | 34.3 | 21.7 | 1.6 | – | – | – | Cc1cc([C@H](C)Nc2ccccc2C(=O)O)c2cc(-c3cnc(C(C)(C)O)nc3)n(C)c(=O)c2c1 [Example 68, (S)-2-((1-(3-(2-(2-hydroxypropan-2-yl)pyrimidin-5-yl)-2,7-dimethyl-1-oxo-1,2-dihydroisoquinolin-5-yl)ethyl)amino)benzoic acid] | –
9 | 88.8 | 1.93 | 46.0 | – | – | – | Cc1cc(C(C)Nc2ccccc2C(=O)O)c2cc(-c3ccccc3C(N)=O)n(C)c(=O)c2c1 (stereo not drawn) [Example 90, 2-((1-(3-(2-carbamoylphenyl)-2,7-dimethyl-1-oxo-1,2-dihydroisoquinolin-5-yl)ethyl)amino)benzoic acid] | –
10 | > 100 | > 100 | – | – | – | – | Cc1cc(C(C)Nc2csc3ccccc23)c2cc(-c3ccccc3)n(C)c(=O)c2c1 (stereo not drawn) [Example 93, 5-(1-(benzo[b]thiophen-3-ylamino)ethyl)-2,7-dimethyl-3-phenylisoquinolin-1(2H)-one] | –
11 | 7.36 | 0.432 | 17.0 | – | – | – | Cc1cc([C@@H](C)Nc2ccccc2C(=O)O)c2cc(-c3ccc(C(C)(C)O)cc3)n(C)c(=O)c2c1 [Example 98, (R)-2-((1-(3-(4-(2-hydroxypropan-2-yl)phenyl)-2,7-dimethyl-1-oxo-1,2-dihydroisoquinolin-5-yl)ethyl)amino)benzoic acid] | –
